From patent US7632525B2, “Breath freshening and oral cleansing product with magnolia bark extract in combination with surface active agents” (Wm. Wrigley Jr. Company, priority 2002, dated 2009)

Legend:
Type in all cases: cell-based
incubated saliva = assay: MIC of surface active agents and emulsifiers on incubated saliva; settings: for germ-kill efficacy: assessment in words of Table 9; for MIC (ppm): incubated saliva, 24 hours at 37° C.
Description: To evaluate the germ-kill efficacy and synergist effect when two or more germ-kill actives are combined, testing was performed to determine the ratio of MBE to surface active agent. The germ-kill active and/or surface active agent was dissolved in ethanol or sterile water to give an initial concentration 0.1% to 1%. […] These dilutions were inoculated with representative oral microorganisms, or incubated saliva, and incubated for 24 hours at 37° C. For each surface active agent, the lowest dilution that was not turbid was registered as the MIC. The MBC was determined by transferring 10 microliter of liquid from non-turbid tubes to fresh growth media and incubated for 48 hrs.

[1] = system: bacteria from freshly-collected stimulated whole saliva (biofilm); assay: Mixed culture saliva biofilm on saliva-coated hydroxyapatite discs (medium pH and OD 600 nm)
Description: A mixed culture system that utilizes the bacteria from freshly-collected stimulated whole saliva was used. Saliva cell pellets were used to inoculate saliva-coated hydroxyapatite (S-HA) discs. The discs were placed in 24-well cell culture plates and incubated for up to 3 days. Biofilms were exposed to actives on days 2 and 3 (starting at 18 hours), and quantified on day 4. The number of bacteria was determined by spectrophotometric absorbance or optical density (OD) at 600 nm. The five phases of the experiment were: pellicle formation; bacterial attachment; biofilm growth; exposure to actives; and bacterial enumeration. To form the pellicles, HA Discs were ultrasonically washed in deionized water and air-dried, then autoclaved. The discs were placed in a 24 well plate with 1 ml 50% sterile saliva (1 part sterile whole saliva: 1 part saliva buffer, filter sterilize after preparation) for 2 hours with slow agitation at room temperature. The saliva was suctioned and then the discs were transferred to fresh wells for bacterial attachment. The discs were inoculated with salivary bacteria by one of two methods: (1) incubation with saliva bacteria suspended in 50% saliva at a standard OD for 2-h at 37° C.; after the attachment phase the discs are transferred to supplemented saliva growth medium, or (2) direct addition of bacteria with media and incubation. To form the biofilms, the bacterial suspension was removed, and the discs were transferred to fresh wells. One ml of supplemented saliva medium was added and the plate was placed in the incubator for overnight incubation and for the duration of the experiment (up to 72 hours). A stock solution of 1% Magnolia Bark Extract in 60% ethanol was prepared. […] One ml quantities of active ingredients and controls were placed into fresh wells, and the discs transferred to these wells for 5 minutes. The chlorhexidine control exposure was one minute, two times a day to mimic the standard mouth-rinse procedure. The exposure to active ingredient was carried out at 8:00 AM, 12:00 and 4:00 PM. After the timed exposure, the solution was removed and the discs washed twice with PBS and then transferred to fresh medium. For some experiments, the medium used during the day was Tryptic Soy Broth (TSB) with a 50 μl 40% sterile sucrose solution added to each well (to give a 2% sucrose solution). The medium was not replaced after the mid-day exposure. After overnight incubation (day 2), discs were exposed to controls and actives. On day 3 the biofilms were again exposed to tests and controls. On day 4 the discs were removed from the medium, the medium pH was measured to obtain an indication of metabolic activity, and the discs were placed into tubes with 2.5 ml PBS, vortexed for 20s, and then placed into the ultrasonic bath for another 20 sec. The suspension was transferred into cuvettes and the bacterial cell density determined by OD measurements at 600 nm. To evaluate the effect of Magnolia Bark Extract in combination with the surface active agent, sodium lauryl sulfate, five active ingredient solutions were prepared using the procedures described above. […] Also, the MBE solutions were prepared to have a concentration of 500 ppm. Sodium lauryl sulfate was added to two of the Magnolia Bark Extract solutions to obtain SLS concentrations of 0.05% and 0.1% in the Magnolia Bark Extract solutions. The testing with Magnolia Bark Extract described above was repeated with the five solutions.

S. mutans = assay: MIC and fractional inhibitory index of MBE/surface active agent combinations on S. mutans; settings: 24 hours at 37° C.
Description: To evaluate the germ-kill efficacy and synergist effect when two or more germ-kill actives are combined, testing was performed to determine the ratio of MBE to surface active agent. […] These dilutions were inoculated with representative oral microorganisms, or incubated saliva, and incubated for 24 hours at 37° C. For each surface active agent, the lowest dilution that was not turbid was registered as the MIC.

Compound	germ-kill efficacy (incubated saliva)	MIC (ppm) (incubated saliva)	further results
CCCCCCCCCCCC(=O)OCCOCCOCCOCCOCCOCCOCCOCCOCCOCCOCCOCCOCCOCCOCCOCCOCCOCCOCCOCCOCC(OCCOCCOCCOCCOCCOCCOCCOCCOCCOCCOCCOCCOCCOCCOCCOCCOCCOCCOCCOCCO)C1OCC(OCCOCCOCCOCCOCCOCCOCCOCCOCCOCCOCCOCCOCCOCCOCCOCCOCCOCCOCCOCCO)C1OCCOCCOCCOCCOCCOCCOCCOCCOCCOCCOCCOCCOCCOCCOCCOCCOCCOCCOCCOCCO (stereo not shown) [Tween 20, Polysorbate 20]	weak or non germ-kill actives		
CCCCCCCCCCCCOS(=O)(=O)[O-].[Na+] [SLS, sodium lauryl sulfate]	good germ-kill surface active agents		% OD reduction ([1]; SLS combination experiment, OD 600 nm, 1000 ppm): 61%; pH ([1]; SLS combination experiment, 1000 ppm): 5.7
Sodium Stearoyl Lactylate	weak or non germ-kill actives	>3000 ppm	
Sodium Brasslate	moderate germ-kill efficacy	500 ppm	
Sucrose Distearate	weak or non germ-kill actives	>500 ppm	
[H]/N=C(\N/C(=N/[H])NCCCCCCNC(=N)NC(=N)Nc1ccc(Cl)cc1)Nc1ccc(Cl)cc1 [CHX, chlorhexidine]			% OD reduction ([1]; OD 600 nm vs PBS control, CHX 0.12%, one minute, two times a day): 84%; % OD reduction ([1]; SLS combination experiment, OD 600 nm, CHX 0.1% (1000 ppm)): 94%; pH ([1]; SLS combination experiment, CHX 0.1% (1000 ppm)): 8.8; pH ([1]; medium pH day 4, CHX 0.12%, exposure one minute, two times a day): 8.8
Sucrose Stearate	weak or non germ-kill actives	>500 ppm	
Cocamidopropyl Betaine	good germ-kill surface active agents		
N=C(NCCCCCCNC(=N)NC(=N)Nc1ccc(Cl)cc1)NC(=N)Nc1ccc(Cl)cc1.O=C(O)[C@H](O)[C@@H](O)[C@H](O)[C@H](O)CO.O=C(O)[C@H](O)[C@@H](O)[C@H](O)[C@H](O)CO [Chlorhexidine gluconate, reference compound]		2 ppm	MIC/ppm (S. mutans): 2 ppm
